This note sets out measurements from patent publication US20140228445A1, “ALKYNE DERIVATIVES AS SPHINGOSINE 1-PHOSPHATE (S1P) RECEPTOR MODULATORS” (Allergan, Inc., priority 2013, published 2014).

Each structure is given as a SMILES string.

By EC50 is commonly meant the concentration needed to bring the measured effect to its halfway point. A higher EC50 goes with weaker potency.

This test deals with T1, human S1P1 receptor (Homo sapiens, UniProt P21453).
T1 construct: expressed in transfected cells; membranes used
T1 sequence (P21453 whole entry): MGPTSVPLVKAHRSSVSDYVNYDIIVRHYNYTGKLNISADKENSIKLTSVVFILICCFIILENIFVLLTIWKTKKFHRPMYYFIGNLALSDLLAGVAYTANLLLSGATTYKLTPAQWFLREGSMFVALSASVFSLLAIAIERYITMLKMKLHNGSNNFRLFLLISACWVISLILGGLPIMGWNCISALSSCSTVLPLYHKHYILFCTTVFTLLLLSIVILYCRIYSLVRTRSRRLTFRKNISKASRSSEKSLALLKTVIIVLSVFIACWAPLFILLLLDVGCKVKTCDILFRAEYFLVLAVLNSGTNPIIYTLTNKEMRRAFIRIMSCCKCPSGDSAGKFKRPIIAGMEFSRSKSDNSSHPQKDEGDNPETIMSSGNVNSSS
In words: GTP γ35S binding assay for S1P1 activity. The class given is biochemical. The settings on record: membranes of cells stably expressing the S1P1 receptor, test range 0.08 to 5,000 nM. As to the method:
Compounds were synthesized and tested for S1P1 activity using the GTP γ^35S binding assay. These compounds may be assessed for their ability to activate or block activation of the human S1P1 receptor in cells stably expressing the S1P1 receptor.
GTP γ^35S binding was measured in the medium containing (mM) HEPES 25, pH 7.4, MgCl2 10, NaCl 100, dithitothreitol 0.5, digitonin 0.003%, 0.2 nM GTP γ^35S, and 5 μg membrane protein in a volume of 150 μl. Test compounds were included in the concentration range from 0.08 to 5,000 nM unless indicated otherwise. Membranes were incubated with 100 μM 5′-adenylylimmidodiphosphate for 30 min, and subsequently with 10 μM GDP for 10 min on ice. Drug solutions and membrane were mixed, and then reactions were initiated by adding GTP γ^35S and continued for 30 min at 25° C. Reaction mixtures were filtered over Whatman GF/B filters under vacuum, and washed three times with 3 mL of ice-cold buffer (HEPES 25, pH7.4, MgCl2 10 and NaCl 100). Filters were dried and mixed with scintillant, and counted for ^35S activity using a β-counter. Agonist-induced GTP γ^35S binding was obtained by subtracting that in the absence of agonist. Binding data were analyzed using a non-linear regression method. In case of antagonist assay, the reaction mixture contained 10 nM S1P in the presence of test antagonist at concentrations ranging from 0.08 to 5000 nM.
A general note: GTPγS is a poorly hydrolysed GTP analogue; its binding reports G protein activation.
In turn, `Cc1ccc(CC(C#Cc2ccc(CCC(N)(CO)CO)cc2)c2cc(F)cc(F)c2)cc1C` (stereo not drawn) [Compound 1, 2-Amino-2-(2-{4-[3-(3,5-difluorophenyl)-4-(3,4-dimethylphenyl)but-1-yn-1-yl]phenyl}ethyl)propane-1,3-diol] showed an EC50 of 35.5 nM.

Turning to `Cc1ccc(CC(C#Cc2ccc(CCC(N)(CO)CO)cc2)c2cccc(F)c2)cc1C` (stereo not drawn) [Compound 2, 2-Amino-2-(2-{4-[4-(3,4-dimethylphenyl)-3-(3-fluorophenyl)but-1-yn-1-yl]phenyl}ethyl)propane-1,3-diol], the EC50 was 3.27 nM.

In turn, `Cc1cccc(C(C#Cc2ccc(CCC(N)(CO)CO)cc2)Cc2ccc(C)c(C)c2)c1` (stereo not drawn) [Compound 3, 2-Amino-2-(2-{4-[4-(3,4-dimethylphenyl)-3-(3-methylphenyl)but-1-yn-1-yl]phenyl}ethyl)propane-1,3-diol] showed an EC50 of 416 nM.
